Laboratory results taken from US20250114387A1, “PHARMACEUTICAL COMPOSITION COMPRISING ENAVOGLIFLOZIN FOR PREVENTING OR TREATING OBESITY IN CANINE ANIMALS” (DAEWOONG PHARMACEUTICAL CO., LTD., priority 2022, published 2025).

Columns and labels:
[1] = Non-clinical toxicity test: 39 weeks repeated oral administration, changes in body weight; format: in vivo, beagles
obese dogs = experiment: Clinical trial in obese dogs: urine test strips, urinary glucose excretion; format: in vivo
Protocol: A total of 20 dogs were selected and divided into 4 groups with 5 dogs in each group: a normal obese control (OC); hereinafter, referred to as a control (OC)), an enavogliflozin 0.2-administered group, an enavogliflozin 0.5-administered group, and an enavogliflozin 1-administered group. The control was fed regular feed, and the enavogliflozin-administered groups were fed regular feed supplemented with enavogliflozin at doses of 0.2, 0.5, or 1 mg/kg, respectively. The feed was supplemented with enavogliflozin once a day for 8 weeks and given orally.
Serum insulin concentrations were measured 2, 4, 6, 8, and 10 weeks after the start of enavogliflozin administration using a Quantikine Canine Insulin ELISA kit (Catalog no. DINS00, R&D Systems, Minneapolis, MN, USA) according to the manufacturer's protocol. […]

[2] = 0.2 mg/kg once a day oral for 8 weeks, 10 weeks
[3] = 0.2 mg/kg once a day oral, 2 weeks
[4] = 0.2 mg/kg once a day oral, 4 weeks
[5] = 0.2 mg/kg once a day oral, 6 weeks
[6] = 0.2 mg/kg once a day oral, 8 weeks
[7] = 0.5 mg/kg once a day oral for 8 weeks, 10 weeks
[8] = 0.5 mg/kg once a day oral, 2 weeks
[9] = 0.5 mg/kg once a day oral, 4 weeks
[10] = 0.5 mg/kg once a day oral, 6 weeks
[11] = 0.5 mg/kg once a day oral, 8 weeks
[12] = 1 mg/kg once a day oral for 8 weeks, 10 weeks
[13] = 1 mg/kg once a day oral, 2 weeks
[14] = 1 mg/kg once a day oral, 4 weeks
[15] = 1 mg/kg once a day oral, 6 weeks
[16] = 1 mg/kg once a day oral, 8 weeks

## OC[C@H]1O[C@@H](c2cc(Cc3ccc(C4CC4)cc3)c(Cl)c3c2CCO3)[C@H](O)[C@@H](O)[C@@H]1O [Enavogliflozin, enavogliflozin]
[1]; normal female beagles, 1 mg/kg/day oral
  body weight decrease: 7.6%
[1]; normal female beagles, 3 mg/kg/day oral
  body weight decrease: 11.8%
[1]; normal female beagles, 6 mg/kg/day oral
  body weight decrease: 11.3%
[1]; normal male beagles, 1 mg/kg/day oral
  body weight decrease: 9.1%
[1]; normal male beagles, 3 mg/kg/day oral
  body weight decrease: 12.7%
[1]; normal male beagles, 6 mg/kg/day oral
  body weight decrease: 21.0%
Obese dogs; [2]
  Urine test - Glucose detection: number of dogs with grade +++, 3: 2
  Urine test - Glucose detection: number of dogs with grade +++, 4: 1
  Urine test - Glucose detection: number of dogs with grade ++, 2: 1
  Urine test - Glucose detection: number of dogs with grade +, 1: 1
  Urine test - Glucose detection: number of dogs with grade −, 0: 0
Obese dogs; [3]
  Urine test - Glucose detection: number of dogs with grade +++, 3: 1
  Urine test - Glucose detection: number of dogs with grade +++, 4: 1
  Urine test - Glucose detection: number of dogs with grade ++, 2: 0
  Urine test - Glucose detection: number of dogs with grade +, 1: 3
  Urine test - Glucose detection: number of dogs with grade −, 0: 0
Obese dogs; [4]
  Urine test - Glucose detection: number of dogs with grade +++, 3: 1
  Urine test - Glucose detection: number of dogs with grade +++, 4: 1
  Urine test - Glucose detection: number of dogs with grade ++, 2: 1
  Urine test - Glucose detection: number of dogs with grade +, 1: 2
  Urine test - Glucose detection: number of dogs with grade −, 0: 0
Obese dogs; [5]
  Urine test - Glucose detection: number of dogs with grade +++, 3: 1
  Urine test - Glucose detection: number of dogs with grade +++, 4: 1
  Urine test - Glucose detection: number of dogs with grade ++, 2: 0
  Urine test - Glucose detection: number of dogs with grade +, 1: 3
  Urine test - Glucose detection: number of dogs with grade −, 0: 0
Obese dogs; [6]
  Urine test - Glucose detection: number of dogs with grade +++, 3: 1
  Urine test - Glucose detection: number of dogs with grade +++, 4: 1
  Urine test - Glucose detection: number of dogs with grade ++, 2: 2
  Urine test - Glucose detection: number of dogs with grade +, 1: 1
  Urine test - Glucose detection: number of dogs with grade −, 0: 0
Obese dogs; [7]
  Urine test - Glucose detection: number of dogs with grade +++, 3: 1
  Urine test - Glucose detection: number of dogs with grade +++, 4: 1
  Urine test - Glucose detection: number of dogs with grade ++, 2: 1
  Urine test - Glucose detection: number of dogs with grade +, 1: 1
  Urine test - Glucose detection: number of dogs with grade −, 0: 1
Obese dogs; [8]
  Urine test - Glucose detection: number of dogs with grade +++, 3: 0
  Urine test - Glucose detection: number of dogs with grade +++, 4: 3
  Urine test - Glucose detection: number of dogs with grade ++, 2: 1
  Urine test - Glucose detection: number of dogs with grade +, 1: 1
  Urine test - Glucose detection: number of dogs with grade −, 0: 0
Obese dogs; [9]
  Urine test - Glucose detection: number of dogs with grade +++, 3: 0
  Urine test - Glucose detection: number of dogs with grade +++, 4: 5
  Urine test - Glucose detection: number of dogs with grade ++, 2: 0
  Urine test - Glucose detection: number of dogs with grade +, 1: 0
  Urine test - Glucose detection: number of dogs with grade −, 0: 0
Obese dogs; [10]
  Urine test - Glucose detection: number of dogs with grade +++, 3: 0
  Urine test - Glucose detection: number of dogs with grade +++, 4: 5
  Urine test - Glucose detection: number of dogs with grade ++, 2: 0
  Urine test - Glucose detection: number of dogs with grade +, 1: 0
  Urine test - Glucose detection: number of dogs with grade −, 0: 0
Obese dogs; [11]
  Urine test - Glucose detection: number of dogs with grade +++, 3: 0
  Urine test - Glucose detection: number of dogs with grade +++, 4: 4
  Urine test - Glucose detection: number of dogs with grade ++, 2: 1
  Urine test - Glucose detection: number of dogs with grade +, 1: 0
  Urine test - Glucose detection: number of dogs with grade −, 0: 0
Obese dogs; [12]
  Urine test - Glucose detection: number of dogs with grade +++, 3: 1
  Urine test - Glucose detection: number of dogs with grade +++, 4: 1
  Urine test - Glucose detection: number of dogs with grade ++, 2: 0
  Urine test - Glucose detection: number of dogs with grade +, 1: 0
  Urine test - Glucose detection: number of dogs with grade −, 0: 3
Obese dogs; [13]
  Urine test - Glucose detection: number of dogs with grade +++, 3: 2
  Urine test - Glucose detection: number of dogs with grade +++, 4: 3
  Urine test - Glucose detection: number of dogs with grade ++, 2: 0
  Urine test - Glucose detection: number of dogs with grade +, 1: 0
  Urine test - Glucose detection: number of dogs with grade −, 0: 0
Obese dogs; [14]
  Urine test - Glucose detection: number of dogs with grade +++, 3: 0
  Urine test - Glucose detection: number of dogs with grade +++, 4: 5
  Urine test - Glucose detection: number of dogs with grade ++, 2: 0
  Urine test - Glucose detection: number of dogs with grade +, 1: 0
  Urine test - Glucose detection: number of dogs with grade −, 0: 0
Obese dogs; [15]
  Urine test - Glucose detection: number of dogs with grade +++, 3: 0
  Urine test - Glucose detection: number of dogs with grade +++, 4: 5
  Urine test - Glucose detection: number of dogs with grade ++, 2: 0
  Urine test - Glucose detection: number of dogs with grade +, 1: 0
  Urine test - Glucose detection: number of dogs with grade −, 0: 0
Obese dogs; [16]
  Urine test - Glucose detection: number of dogs with grade +++, 3: 1
  Urine test - Glucose detection: number of dogs with grade +++, 4: 5
  Urine test - Glucose detection: number of dogs with grade ++, 2: 0
  Urine test - Glucose detection: number of dogs with grade +, 1: 0
  Urine test - Glucose detection: number of dogs with grade −, 0: 0
Obese dogs; enavogliflozin-administered groups, particularly 0.2 mg/kg
  Urinary glucose (GLU) excretion: higher
